Measurements as given in paper PMC6050274, “Buparlisib is a brain penetrable pan-PI3K inhibitor” (Scientific Reports, 2018).
Where “and” joins values, the source holds several entries; their conditions need not be identical. Equal values may be shown once. Read-outs that look alike come from different tables or passages of the source.

How the values were obtained:
Assay type in all cases: in vivo, FVB mice
[1] = Brain and tissue penetration after i.v. administration in wildtype and P-gp/BCRP knockout mice; settings: 2 mg/kg i.v.
Experimental: To study whether P-gp and BCRP attenuate buparlisib brain penetration in vivo, we measured the brain and plasma concentration in wildtype (WT), Abcg2^−/−, Abcb1a/b^−/− and Abcb1a/b; Abcg2^−/− mice 1 hour after i.v. administration of 2 mg/kg buparlisib.
Figure 2 The impact of P-gp and BCRP on the brain and tissue penetration of buparlisib. Buparlisib was administered intravenously to wildtype, Abcg2^−/−, Abcb1a/b^−/− and Abcb1a/b;Abcg2^−/− mice at a dose of 2 mg/kg. One hour after injection, blood and tissues were collected for LC-MS/MS analysis. […] All data are represented as mean ± SD (n = 4).
(§1) The pharmacokinetics of buparlisib were analysed in WT, Abcg2^−/−, Abcb1a/b^−/− and Abcb1a/b; Abcg2^−/− FVB mice. All knockout mice strains have been developed within our institute[41]–[43]. For i.v. administration, buparlisib was dissolved in DMSO and injected at a dose of 2 mg/kg. For oral administration, buparlisib was formulated in DMSO:Cremophor EL:water (1:1:8 v/v/v) and administered at 1, 2 or 5 mg/kg as indicated. Tail vein bleeding was used to collect blood at intermediate time points, whereas at the last time point blood was drawn by cardiac puncture and various tissue were collected. Plasma was obtained from whole blood by centrifugation (5 min, 5,000 rpm, 4 °C). After weighing, tissues were homogenized using a FastPrep®-24 (MP-Biomedicals, NY) in 1% (w/v) bovine serum albumin in water. Buparlisib was extracted from plasma and tissue homogenate by liquid-liquid extraction with ethyl acetate using AZD8055 as an internal standard.
(§2) Buparlisib was measured in samples from in vitro transport assays and in vivo pharmacokinetic studies using an LC-MS/MS system comprised of an UltiMate 3000 LC Systems (Dionex, Sunnyvale, CA) and an API 4000 mass spectrometer (Sciex, Framingham, MA). Samples were run through a Securityguard C18 pre-column (Phenomenex, Utrecht, The Netherlands) prior to separation on a ZORBAX Extend-C18 column (Agilent, Santa Clara, CA). Elution was done using a in a 5 minute gradient from 20% to 95% B (mobile phase A was 0.1% HCOOH in water (v/v) and mobile phase B was methanol). 95% B was maintained for 3 min followed by re-equilibration at 20% B. Multiple reaction monitoring was performed at 411.3/367.2 (buparlisib) and 418.2/138.4 (AZD8055). Analyst® 1.6.2 software (AB Sciex; Foster City, CA) was used for system control and data analysis.
(§3) As described in detail before, CETA results were analysed with the General linear model repeated measures procedure of SPSS (v22; SPSS Inc, Chicago, IL)[25]. PK solver was used to determine pharmacokinetic parameters. The standard error of the oral bioavailability was calculated using the formula below: SEF=F(SEAUCp.o./AUCp.o.)^2+(SEAUCi.v./AUCi.v.)^2 Buparlisib concentrations in WT and transporter knockout mice in vivo were compared using one-way analysis of variance followed by post hoc Bonferroni tests. Statistical differences between the buparlisib PK parameters in male and female mice were calculated as Bonferroni corrected p-values using multiple Student’s t-tests. Differences were considered statistically significant when p < 0.05.

[2] = Plasma pharmacokinetics after i.v. and oral administration in male and female mice; settings: for bioavailability: p.o. (5 mg/kg) vs i.v. (2 mg/kg), read-out: F (oral bioavailability); for Vd/F: read-out: Vz/F
Experimental: Finally, we studied the pharmacokinetics of buparlisib in male and female mice and assessed the oral bioavailability in both genders by comparing the area-under-the-plasma concentration-time-curves (AUCs) following intravenous and oral administration. Both after oral and i.v. administration there was no difference in pharmacokinetics between male and female mice (Fig. 3C, Table 1).
as §1, §2, §3

PI3K = experiment: Intracranial target inhibition, immunoblotting of brain lysates
Experimental: Figure 3 Buparlisib has excellent intracranial target engagement and oral bioavailability. (A) Buparlisib was orally administered to wildtype mice at a dose of 1 mg/kg, 2 mg/kg or 5 mg/kg. One hour after injection, blood and tissues were collected for LC-MS/MS analysis. Buparlisib plasma and brain levels increase dose-dependently, yielding similar and excellent brain-plasma ratios at all dose levels that were tested. (B) Immunoblotting of brain tissue lysates from (A). […] (C) Plasma-time curves of male and female wildtype mice following intravenous (2 mg/kg) or oral (5 mg/kg) administration. […] The oral bioavailability of buparlisib is excellent, since oral and intravenous administration yielded similar dose-adjusted AUCs (see Table 1). All data are represented as mean ± SD (n = 4).
Next, we studied the intracranial pharmacodynamics of buparlisib in WT FVB mice as measured by target inhibition.
Mouse brains were homogenized in RIPA buffer supplemented with sodium fluoride (2 mM), sodium orthovanadate (1 mM), sodium pyrophosphate (1 mM), β-glycerophosphate (2.5 mM), PMSF (1 mM), DTT (1 mM) and protein inhibitor cocktail (Roche; Basel, Switzerland). The primary antibodies that were used in this study are phospho-Akt^S473 (1:1000; D9E, #4060; Cell Signaling Technology; Danvers, MA), total Akt (1:1000; #9272; Cell Signaling Technology), phospho-Erk1^T202/204/Erk2^T183/Y185 (1:1000; sc-16982; Santa Cruz Biotechnology, Dallas, TX), total Erk1/2 (1:1000; C16, sc-93; Santa Cruz Biotechnology) and β–tubulin (1:1000; T3952; Sigma-Aldrich, St. Louis, MO). Goat-anti-rabbit-HRP (1:2000; DAKO, Santa Clara, CA) was used a secondary antibody.

[3] = FVB, mouse, plasma, iv, i.v. (2 mg/kg), female
[4] = FVB, mouse, plasma, iv, i.v. (2 mg/kg), male
[5] = FVB, mouse, plasma, po, p.o. (5 mg/kg), female
[6] = FVB, mouse, plasma, po, p.o. (5 mg/kg), male

In the case of Nc1cc(C(F)(F)F)c(-c2cc(N3CCOCC3)nc(N3CCOCC3)n2)cn1 [buparlisib], the “brain concentration compared with liver, kidney and spleen concentrations” value ([1]; 1 hour) is reported as “slightly higher”, the “kidney level compared with concurrent plasma level” value ([1]; 1 hour) is reported as “lower” and the “liver level compared with concurrent plasma level” value ([1]; 1 hour) is reported as “equal”. For the same compound, the “spleen level compared with concurrent plasma level” value ([1]; 1 hour) was “lower”, the “differences among mouse strains in plasma and brain concentrations” value ([1]; 1 hour, WT vs transporter knockout mice) was “No differences” and the Kp at 1 h ([1]; FVB, mouse, brain/plasma, intravenous, all strains (WT, Abcg2-/-, Abcb1a/b-/-, Abcb1a/b;Abcg2-/-), read-out: brain-plasma ratio) was 1.5 to 2. It also gave a Cmax [2, 3] of 1900 ± 410 ng/mL, a half-life [2, 3] of 1.6 ± 0.07 h and a Vd ([2]; FVB, mouse, plasma, iv, i.v. (2 mg/kg), female, read-out: Vz) of 0.86 ± 0.14 L/kg. It also gave a Cmax [2, 4] of 2100 ± 190 ng/mL, a half-life [2, 4] of 1.67 ± 0.07 h and a Vd ([2]; FVB, mouse, plasma, iv, i.v. (2 mg/kg), male, read-out: Vz) of 0.8 ± 0.23 L/kg. For the same compound, the concentration at 24 h ([2]; FVB, mouse, plasma, oral, mice, 5 mg/kg, read-out: plasma level after 24 h) was < 1 ng/mL and < 2.4 nM, the bioavailability ([2]; FVB, mouse, plasma, oral, female) was 112 ± 21.1% and the bioavailability ([2]; FVB, mouse, plasma, oral, male) was 103 ± 26.1%. For the same compound, the CL/F [2, 5] was 5.33 mL/min/kg, the Cmax [2, 5] was 3000 ± 490 ng/mL and the Tmax [2, 5] was 0.67 ± 0.39 h. It also gave a half-life [2, 5] of 1.4 ± 0.04 h, a Vd/F [2, 5] of 0.63 ± 0.08 L/kg and a CL/F [2, 6] of 5.17 mL/min/kg. The Cmax [2, 6] was 3300 ± 1300 ng/mL, the Tmax [2, 6] was 1 h and the half-life [2, 6] was 1.44 ± 0.06 h. The Vd/F [2, 6] was 0.64 ± 0.03 L/kg, the oral bioavailability ([2]; both genders, dose-corrected AUC oral vs i.v.) was “complete” and the Vd ([2]; both sexes, FVB, mouse, plasma, intravenous, 2 mg/kg, mice, read-out: volume of distribution) was under 1 L/kg. The CL ([2]; i.v. (2 mg/kg), female) was 0.37 ± 0.06 L/kg^.h, the “Plasma AUC 0-∞” value ([2]; i.v. (2 mg/kg), female) was 5600 ± 860 ng/ml^.h and the CL ([2]; i.v. (2 mg/kg), male) was 0.33 ± 0.09 L/kg^.h. The “Plasma AUC 0-∞” value ([2]; i.v. (2 mg/kg), male) was 6300 ± 1500 ng/ml^.h, the “difference in pharmacokinetics between male and female mice” value ([2]; oral and i.v. administration) was “no difference” and the “Plasma AUC 0-∞” value ([2]; p.o. (5 mg/kg), female) was 16000 ± 1700 ng/ml^.h. For the same compound, the “Plasma AUC 0-∞” value ([2]; p.o. (5 mg/kg), male) was 16000 ± 1200 ng/ml^.h, the “phosphorylation of Akt S473 in the brain” value (PI3K; oral 5 mg/kg, wildtype mice) was “efficiently inhibited” and the “phosphorylation of AKT in brain lysates” value (PI3K; oral 1, 2, 5 mg/kg, WT FVB mice) was “dose-dependently decreased”. For the same compound, the “signalling through ERK in brain lysates” value (PI3K; oral, WT FVB mice) was “without affecting”.
